# Source: patent publication US7452869B2, “NIP3 family of proteins” (University of Manitoba, priority 2000, dated 2008)
# Several values for one entry are separate records, joined by “and”; a condition that tells them apart may be missing. Identical values can stand only once. Starred links: 1 amine or outer side, 2 acyl side, 3 side chain; linkers in the order of their positions; H or OH if unused. Positions of bridges follow the written chain, without caps; N, C: chain ends. Non-standard residues stand in square brackets, D forms with d. Residues, ends and D or L forms follow the SMILES beside them. Chains are numbered I, II in the order given. *: point of attachment. Actinocin(9to1) = Cc1c2oc3c(C)ccc(C(=O)[*:1])c3nc-2c(C(=O)[*:2])c(N)c1=O; NMeV = CN[C@H](C(=O)O)C(C)C; Cbz = O=C(OCc1ccccc1)*; Sar = CNCC(=O)O; CH2F = FC*
# Tests used:
# caspase 3-like proteases = assay: caspase activation, colorigenic cleavage of Ac-DEVD-pNA by lysates of transfected 293T cells; assay type: biochemical
# Protocol: Lysates were collected from 293T cells, transiently transfected via the CaP04 method (Ray, R., et al., 1999), at the indicated times. Aliquots of these lysates were run under Laemmli sodium dodecyl sulfate-polyacrylamide gel electrophoresis (SDS-PAGE) conditions and immunoblotted with mouse monoclonal anti-PARP. Results were visualized with an enhanced chemiluminescence system (Amersham Pharmacia Biotech, Amersham, U. K.). Transfected 293T cells were also assayed for caspase cleavage via colorigenic cleavage of the peptide Ac-DEVD-pNA (Biomol, Plymouth Meeting, Pa.), according to the conditions outlined by Quignon et al. (Scaffidi, C., et al., 1998), using 100 mM peptide. Where appropriate, samples were preincubated with 500 nM Ac-DEVD-fmk for 30 minutes at room temperature. Data were acquired on a Multiskan MCC/340 (Titertek) plate reader at 405 nm.
# 293T cells [1] = assay: DNA fragmentation (TUNEL) in transfected 293T cells; assay type: cell-based; parameters: dose or concentration left out as unconfirmed
# Protocol: DNA fragmentation was detected using the in situ cell death detection kit with fluorescein (Boehringer Mannheim) as per the manufacturer's recommendations in the presence or absence of […] Ac-zVAD-fmk or Ac-FA-fmk. Images were captured as described earlier. No fewer than 200 nuclei were scored manually for each sample. Annexin V staining was performed exactly as described by the manufacturer (Boehringer Mannheim), and samples were analyzed via flow cytometry.
# 293T cells [2] = assay: b-galactosidase cell death assay in transiently transfected 293T cells; assay type: cell-based
# Protocol: (§1) Various doses of the peptide caspase inhibitor Ac-zVAD-fmk (Enzyme System Products, Dublin, Calif.) were applied to 1×10^5 293T cells cotransfected, using LipofectAmine reagent (Gibco-BRL), with 0.01 mg of the reporter plasmid pcDNA3bgal plus the indicated expression plasmids to a final amount of 0.75 mg of DNA (see FIG. 2), as adjusted with empty vector. Cells were fixed, stained, and evaluated 27 hours posttransfection as described previously (Miura, M. et al., 1993). Similar strategies were used to evaluate the expression of pcDNA1-p35 as a caspase inhibitor (1.95 mg of DNA total) and to determine the killing efficiency of BNIP3 expressed in MEF cells (1.2 mg of DNA with 0.3 mg of b-galactosidase).
# [3] = test system: primary hippocampal neurons; assay: excitotoxic cell death of primary hippocampal neurons, trypan blue exclusion; assay type: cell-based, rat
# Protocol: Primary hippocampal neurons were prepared from 18-day-old embryonic Sprague-Dawley rats as described previously by Haughey, N. J. et al. (2001). Briefly, hippocampal tissue was dissociated by gentle tituration in a calcium-free Hank's balanced salt solution and was centrifuged at 1000×g. Cells were resuspended in Dulbecco's modified Eagle's medium (DMEM)/F12 nutrient mixture containing 10% heat-inactivated fetal bovine serum and 1% antibiotic solution (104 IU of penicillin G/ml, 10 mg streptomycin/ml and 25 μg amphotericin B/ml) in 0.9% NaCl (Sigma, St Louis, Mo., USA). Hippocampal neurons were plated at a density of 2×10^5 cells/ml on 12-mm diameter poly d-lysine-coated glass coverslips. Three hours after plating, the media was replaced with serum-free Neurobasal media containing 1% B-27 supplement (Gibco, Rockville, Md., USA).
# To determine the extent to which NMDA-type glutamate receptors were involved in BNIP3 expression and excitotoxic cell death, the inventors used the agonist NMDA (100 μM) in the absence or presence of the NMDA receptor antagonist MK-801 (10 μM). To determine the extent to which caspase activation contributes to BNIP3-mediated cell death, hippocampal cells were incubated in the absence or presence of the broad spectrum cell permeable caspase inhibitors z-VAD-FMK (50 μM) and BOC-D-FMK (50 μM); these inhibitors were applied 30 minutes prior to application of glutamate or NMDA. […]
# (§2) In vitro cell death was estimated using trypan blue exclusion. Cells were incubated in 0.4% trypan blue solution for 30 minutes and then counted on a bright-field microscope. Nonviable cells were distinguished by their dark blue staining. To examine nuclear morphology, nuclear DNA was stained with Hoescht 33342. DNA fragmentation was detected by TUNEL using an in situ cell death detection kit with fluorescein. Statistical analyses were by ANOVA with Tukey's post-test.
# ventricular myocytes = assay: cell viability of ventricular myocytes, calcein acetoxymethyl ester / ethidium homodimer-1; assay type: cell-based; settings: for BNIP3-induced cell death of ventricular myocytes: z-VAD-fmk 25 to 100 μmol/L, dose dependent
# Protocol: Ventricular myocytes were isolated from 1- to 2-day-old Sprague-Dawley rats (University of Manitoba, Winnipeg, Canada) and submitted to primary culture as reported (Kirshenbaum and Schneider, 1995). Myocytes were subjected to hypoxia for 24 hours in an air-tight chamber continually gassed with 95% N2-5% CO2, as previously reported (Moissac et al., 2000; Long et al., 1997; Tanaka et al., 1994). Adult rat hearts (n=3) were excised from adult rats (250 to 300 g) and subjected to global hypoxia for 1 hour on a modified Langendorff perfusion system with buffer continually gassed with 95% N2-5% CO2, as previously reported (Kirshenbaum, 1993). Heart failure was induced in rats by surgical ligation of the left anterior descending coronary artery, as previously reported (Dixon et al., 1992). Non-failing sham control hearts and those with heart failure were excised from animals 8 weeks after myocardial infarction. Hearts (n=3) were dissected to remove the infarcted scar tissue, and the left ventricular free wall was homogenized and analyzed by Western blot for BNIP3 expression. Animals were handled according to guidelines established by the University of Manitoba and Canadian Council on Animal Care.
# The cDNAs for BNIP3 full-length (BNIP3) and carboxyl terminal transmembrane domain deletion mutant (BNIP3ΔTM) have been described previously (Vande et al., 2000). Recombinant adenoviruses encoding the full-length BNIP3 or transmembrane deletion mutant are designated AdBNIP3 or AdBNIP3ΔTM, respectively, and generated as reported previously (Kirshenbaum et al., 1993).
# Cell viability was determined using the vital dyes 2 μmol/L calcein acetoxymethyl ester (green) to determine the number of living cells and 2 μmol/L ethidium homodimer-1 (red) (Molecular Probes) to identify the number of dead cells (Kirshenbaum and Schneider, 1995). The number of green cells versus red cells was used to determine changes in cell viability (Moissac et al., 2000). Cells were analyzed from at least n=3 independent myocyte isolations counting ≧200 cells for each condition tested. Data are expressed as mean±SE percent reduction from control.
# MEFs = assay: b-galactosidase cell death assay in wild-type, Apaf-1, caspase 9 or caspase 3 deficient MEFs; assay type: cell-based, mouse
# Protocol: as §1
# Results are expressed as the mean […] SE from three independent experiments. […] N, N-Dimethyl formamide (DMF) was used to dilute the adriamycin.
# PT pore = assay: mitochondrial Dcm (DiOC6), ROS production (HE) and PI staining by flow cytometry in BNIP3-transfected 293T cells; assay type: cell-based; settings: 293T cells, 8 hours after transfection
# Protocol: Changes in mitochondrial function were determined by incubating 10 6 293T cells, transiently transfected via the CaP04 method, with either 1 mM JC-1, 40 nM DiOC6, or 2 mM dihydroethidium (HE) (all from Molecular Probes, Inc.) for 30 minutes at 37° C. in Hanks' balanced salt solution (Gibco-BRL). Cells were scored using a FACScalibur flow cytometer (Becton-Dickinson, San Jose, Calif.), and data were analyzed on Celiquest software, version 3.1 (Becton-Dickinson). Controls were performed in the presence or absence of […] mClCCP (Sigma) or an excess of 30% H2 02. For inhibition experiments, cyclosporin A (Sigma) or bongkrekic acid (a gift from J. A. Duine, Delft University, Delft, The Netherlands) was added 2 hours prior to transfection. All cells were harvested 8 hours after transfection and stained with 40 nM DiOC6, 2 mM HE, or 1 mg of propidium iodide (PI) (Sigma) per ml. In all cases, samples were gated to exclude cellular debris.
# MCF-7 cells = assay: cytochrome c release by indirect immunofluorescence, MCF-7; assay type: cell-based
# Protocol: (§3) Mitochondria were isolated from CaP04-transfected 293T cells using 70 strokes (tight pestle) in a 1-ml Dounce homogenizer (Wheaton) in […] of CFS buffer as previously described (Thornberry, N. A., et al., 1998). Mitochondria were resuspended in H buffer (Thornberry, N. A., et al., 1998). Aliquots of […] of protein were analyzed on Laemmli SDS-15% PAGE gels and immunoblotted with anticytochrome c monoclonal antibody. Equal loading was ensured by probing the same blot with monoclonal antiactin. Results were visualized with enhanced chemiluminescence. Cytochrome c release was also determined via indirect immunofluorescence of transfected MCF-7 and 293T cells. Briefly, cells grown on coverslips were costained with Cy3-conjugated mouse anti-cytochrome c monoclonal antibody and an appropriate tag (HA for BNIP3 and FLAG for tBID), which was visualized with FITC-conjugated goat anti-rabbit IgG. Cells were also stained with Hoechst dye to determine apoptotic nuclear morphology. No fewer than 200 cells were scored for each sample. Fluorescence was visualized and captured using a Zeiss axiophot microscope equipped with a cooled charge-coupled device camera.
# 293T cells [4] = assay: cytochrome c release by indirect immunofluorescence, 293T; assay type: cell-based
# Protocol: as §3
# [5] = test system: primary hippocampal neurons; assay: primary hippocampal neurons transfected with BNIP3 plasmids, DNA condensation and survival; assay type: cell-based, rat
# Protocol: Transfection of cells was performed on day four in culture with LipofectAMINE 2000 […] according to manufacturer's protocol. Cells were transfected with a pcDNA3-BNIP3 plasmid encoding the full length of BNIP3 and a pcDNA3-BNIP3-163 plasmid that encodes a truncated form (the first 163 amino acids) of BNIP3 that lacks the functional transmembrane domain. Cells were used after 9 days in culture for excitotoxicity experiments. Neuronal cell death was assessed using trypan blue exclusion, morphological changes, and Hoescht 33342 staining. Morphological characteristics were examined on a Nikon Eclipse TE200 microscope and fluorescence was examined on a Zeiss Axioskop 2.
# as §2
# [6] = inhibitor, 24 hours posttransfection
molecule,measurement,setting,value
CC(=O)N[C@@H](CC(=O)O)C(=O)N[C@@H](CCC(=O)O)C(=O)N[C@H](C(=O)N[C@@H](CC(=O)O)C(=O)CF)C(C)C [Ac-DEVD-fmk],proteolytic activity of lysates of BNIP3 or BNIP3DTM transfected cells with inhibitor,caspase 3-like proteases; 500 nM Ac-DEVD-fmk,not inhibited
same,Ac-DEVD-pNA substrate cleavage in tBID-transfected cells with inhibitor,caspase 3-like proteases; lysates preincubated with 500 nM Ac-DEVD-fmk,blocked
CC(=O)NC(Cc1ccccc1)C(=O)NC(C)C(=O)CF (stereo not shown) [Ac-FA-fmk],DNA fragmentation (TUNEL) in parallel populations,293T cells [1]; Ac-FA-fmk,No effect
COC(=O)C[C@H](NC(=O)[C@H](C)NC(=O)[C@@H](NC(=O)OCc1ccccc1)C(C)C)C(=O)CF [Ac-zVAD-fmk] (Cbz-Val-Ala-Asp(OMe)-CH2F),BNIP3-induced cell death in presence of caspase inhibitor,"293T cells [2]; 293T cells transfected with BNIP3, evaluated 27 hours posttransfection, p35 plasmid up to 1.5 mg",unaffected
same,suppression of cell death of tBID or caspase 9/Apaf-1 transfectants,"293T cells [2]; 293T cells, 27 hours posttransfection, same concentration of inhibitor",greater than 50%
same,DNA fragmentation (TUNEL) in BNIP3 transfectants,293T cells [1]; [6],partially inhibited
same,DNA fragmentation (TUNEL) in tBID-expressing cells,293T cells [1]; [6],nearly completely inhibited
same,cell death caused by glutamate or NMDA,"[3]; z-VAD-FMK 50 μM alone, trypan blue 6 hours after glutamate or NMDA",did not prevent
same,BNIP3-induced cell death of ventricular myocytes,ventricular myocytes; listed as z-VAD-fmk,prevented
same,BNIP3-induced cell death of ventricular myocytes,ventricular myocytes; listed as z-VADfmk,suppressed
CN[C@H](CC(=O)O)C(=O)O [NMDA],neuronal cell death (trypan blue exclusion),"[3]; 6 hours after application, p<0.01",significantly increased
"Cc1c2oc3c(C)ccc(C(=O)N[C@@H]4C(=O)N[C@H](C(C)C)C(=O)N5CCC[C@H]5C(=O)N(C)CC(=O)N(C)[C@@H](C(C)C)C(=O)O[C@@H]4C)c3nc-2c(C(=O)N[C@@H]2C(=O)N[C@H](C(C)C)C(=O)N3CCC[C@H]3C(=O)N(C)CC(=O)N(C)[C@@H](C(C)C)C(=O)O[C@@H]2C)c(N)c1=O [actinomycin D] (I: T[dV]P[Sar][NMeV] / II: T[dV]P[Sar][NMeV]; ester I:1-I:C, II:1-II:C; linker I:N-II:N via Actinocin(9to1))",number of trypan blue positive cells caused by glutamate toxicity,"[3]; actinomycin D 1 mg/ml added, p<0.01, to untreated control levels",significantly decreased
same,"cell death rates, drug alone",[3]; actinomycin D alone,did not affect
COc1cccc2c1C(=O)c1c(O)c3c(c(O)c1C2=O)C[C@@](O)(C(=O)CO)C[C@@H]3O[C@H]1C[C@H](N)[C@H](O)[C@H](C)O1 [adriamycin],adriamycin-induced cell death in mutant MEFs,"MEFs; Apaf-1, caspase 9 or caspase 3 deficient MEFs, 3 mg of adriamycin per ml for 24 hours",profound resistance
"BNIP3: full-length BNIP3, expressed from plasmid or adenovirus; mutation None",increase in Ac-DEVD-pNA substrate cleavage after transfection,"caspase 3-like proteases; 293T lysates harvested 1 to 36 hours posttransfection, versus untransfected controls",only marginal increases
same,cell death induced by transient transfection,MEFs; wild-type and all mutant MEF lines,50%
same,DiOC6-low and HE-high cells,PT pore,55%
same,cytochrome c release (in words),MCF-7 cells,no significant cytochrome c release
same,cytochrome c release (in words),293T cells [4],only very low levels
same,neurons surviving glutamate toxicity,"[5]; glutamate 100 μM at day 9 in culture, 5 days after transfection",32%
same,BNIP3-positive neurons showing DNA condensation / DNA damage,[5]; transiently transfected hippocampal neurons,81% and 85%
same,increase in myocyte death,"ventricular myocytes; adenovirus encoding full-length BNIP3 versus control virus, P<0.05",8.3 fold
